In patent US9833497B2, “Human originated EGF domain proteins and use of the same” (CHENGDU SOURCEBIO LIMITED-LIABILITY COMPANY, priority 2013, dated 2017):

Legend:
Type in all cases: cell-based
[1] = system: Proteus mirabilis; experiment: MIC against Gram-negative bacteria: Proteus mirabilis
Method in brief: (§1)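 LB broth cultures at McFarland 0.5, spun down, resuspended, diluted to 5×10^5 CFU/mL final. Two-fold serial dilutions of purified human EGF domain proteins, triplicate. 37° C, 175 rpm shaking. Endpoint: no visible growth.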

[2] = system: Klebsiella pneumonia; experiment: MIC against Gram-negative bacteria: Klebsiella pneumonia
Method in brief: as §1

[3] = system: Pseudomonas aeruginosa; experiment: MIC against Gram-negative bacteria: Pseudomonas aeruginosa
Method in brief: as §1

[4] = system: Proteus vulgaris; experiment: MIC against Gram-negative bacteria: Proteus vulgaris
Method in brief: as §1

[5] = system: E. coli DH5α; experiment: Antibacterial activity: MIC and growth curve against E. coli DH5α in 96-well plate; conditions: minimal inhibitory concentration against E. coli DH5α; 96-well plate, 5×10^5 CFU/mL, 37° C., judged after 8 h
Method in brief: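 Log-phase bacteria (OD600 ~0.5) resuspended in LB at 5×10^5 CFU/mL, exposed to recombinant protein at 50, 25, 12.5 μg/mL final in triplicate, 37 °C shaking at 175 rpm. OD600 read every 30 min; MIC is lowest concentration showing no growth.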

[6] = system: E. coli BL21; experiment: MIC against Gram-negative bacteria: E. coli BL21
Method in brief: as §1

[7] = system: Aeromonas hydrophila; experiment: MIC against Gram-negative bacteria: Aeromonas hydrophila
Method in brief: as §1

[8] = system: Moraxella catarrhalis; experiment: MIC against Gram-negative bacteria: Moraxella catarrhalis
Method in brief: as §1

[9] = system: Serratia marcescens; experiment: MIC against Gram-negative bacteria: Serratia marcescens
Method in brief: as §1

[10] = system: Citrobacter diversus; experiment: MIC against Gram-negative bacteria: Citrobacter diversus
Method in brief: as §1

[11] = system: Enterobacter cloacae; experiment: MIC against Gram-negative bacteria: Enterobacter cloacae
Method in brief: as §1

[12] = P. mirabilis, 10 h cultivation at 37° C., 5×10^5 CFU/mL
[13] = K. pneumonia, 10 h cultivation at 37° C., 5×10^5 CFU/mL
[14] = P. aeruginosa, 10 h cultivation at 37° C., 5×10^5 CFU/mL
[15] = P. vulgaris, 10 h cultivation at 37° C., 5×10^5 CFU/mL
[16] = E. coli BL21, 10 h cultivation at 37° C., 5×10^5 CFU/mL
[17] = A. hydrophila, 10 h cultivation at 37° C., 5×10^5 CFU/mL
[18] = M. catarrhalis, 10 h cultivation at 37° C., 5×10^5 CFU/mL
[19] = S. marcescens, 10 h cultivation at 37° C., 5×10^5 CFU/mL
[20] = C. diversus, 10 h cultivation at 37° C., 5×10^5 CFU/mL
[21] = E. cloacae, 10 h cultivation at 37° C., 5×10^5 CFU/mL
[22] = Proteus mirabilis, 96-well plate, 5×10^5 CFU/mL, 37° C., 10 h
[23] = Klebsiella pneumonia, 96-well plate, 5×10^5 CFU/mL, 37° C., 10 h
[24] = Pseudomonas aeruginosa, 96-well plate, 5×10^5 CFU/mL, 37° C., 10 h
[25] = Proteus vulgaris, 96-well plate, 5×10^5 CFU/mL, 37° C., 10 h
[26] = E. coli BL21, 96-well plate, 5×10^5 CFU/mL, 37° C., 10 h
[27] = Aeromonas hydrophila, 96-well plate, 5×10^5 CFU/mL, 37° C., 10 h
[28] = Moraxella catarrhalis, 96-well plate, 5×10^5 CFU/mL, 37° C., 10 h
[29] = Serratia marcescens, 96-well plate, 5×10^5 CFU/mL, 37° C., 10 h
[30] = Citrobacter diversus, 96-well plate, 5×10^5 CFU/mL, 37° C., 10 h
[31] = Enterobacter cloacae, 96-well plate, 5×10^5 CFU/mL, 37° C., 10 h
[32] = 96-well plate, 5×10^5 CFU/mL, 37° C., 10 h

PRT774 (LTLRCDYYGCNQTADDCLNGLACDCKSDLQRPNPQSPFCV; listed as Homo sapiens)
25 µg/mL: MIC (μg/mL) K. pneumonia [2, 13] | MIC (μg/mL) A. hydrophila [7, 17]
50 µg/mL: MIC [5] | MIC (μg/mL) S. marcescens [9, 19]
12.5 µg/mL: MIC (μg/mL) P. mirabilis [1, 12] | MIC (μg/mL) P. aeruginosa [3, 14] | MIC (μg/mL) P. vulgaris [4, 15] | MIC (μg/mL) E. coli BL21 [6, 16] | MIC (μg/mL) M. catarrhalis [8, 18] | MIC (μg/mL) C. diversus [10, 20] | MIC (μg/mL) E. cloacae [11, 21]

PRT44 (LYAQVSQSKPCERTGSCFSGRCVNSTCLCDPGWVGDQCQ; listed as Homo sapiens)
25 µg/mL: MIC (μg/mL) P. aeruginosa [3, 24] | MIC (μg/mL) P. vulgaris [4, 25] | MIC (μg/mL) A. hydrophila [7, 27] | MIC (μg/mL) M. catarrhalis [8, 28]
12.5 µg/mL: MIC (μg/mL) K. pneumonia [2, 23] | MIC [5] | MIC (μg/mL) E. coli BL21 [6, 26] | MIC (μg/mL) S. marcescens [9, 29] | MIC (μg/mL) C. diversus [10, 30] | MIC (μg/mL) E. cloacae [11, 31]
50 µg/mL: MIC (μg/mL) P. mirabilis [1, 22]

PRT1406 (EADCIDPGCSNHGVCIHGECHCSPGWGGSNCE; listed as Homo sapiens)
50 µg/mL: MIC against P. vulgaris ([4]; Proteus vulgaris, 5×10^5 CFU/mL, 10 h cultivation at 37° C.) | MIC against E. coli BL21 ([6]; E. coli BL21, 5×10^5 CFU/mL, 10 h cultivation at 37° C.) | MIC against A. hydrophila ([7]; Aeromonas hydrophila, 5×10^5 CFU/mL, 10 h cultivation at 37° C.) | MIC against M. catarrhalis ([8]; Moraxella catarrhalis, 5×10^5 CFU/mL, 10 h cultivation at 37° C.) | MIC against S. marcescens ([9]; Serratia marcescens, 5×10^5 CFU/mL, 10 h cultivation at 37° C.)
25 µg/mL: MIC against P. aeruginosa ([3]; Pseudomonas aeruginosa, 5×10^5 CFU/mL, 10 h cultivation at 37° C.) | MIC [5] | MIC against E. cloacae ([11]; Enterobacter cloacae, 5×10^5 CFU/mL, 10 h cultivation at 37° C.)
12.5 µg/mL: MIC against P. mirabilis ([1]; Proteus mirabilis, 5×10^5 CFU/mL, 10 h cultivation at 37° C.) | MIC against K. pneumonia ([2]; Klebsiella pneumonia, 5×10^5 CFU/mL, 10 h cultivation at 37° C.) | MIC against C. diversus ([10]; Citrobacter diversus, 5×10^5 CFU/mL, 10 h cultivation at 37° C.)

PRT819 (YGHNCSQACACFNGASCDPVHGQCHCAPGWMGPSCL; listed as Homo sapiens)
25 µg/mL: MIC (μg/mL) E. coli BL21 [6, 16] | MIC (μg/mL) S. marcescens [9, 19] | MIC (μg/mL) C. diversus [10, 20] | MIC (μg/mL) E. cloacae [11, 21]
12.5 µg/mL: MIC (μg/mL) P. mirabilis [1, 12] | MIC (μg/mL) K. pneumonia [2, 13] | MIC (μg/mL) P. aeruginosa [3, 14] | MIC [5] | MIC (μg/mL) A. hydrophila [7, 17]
50 µg/mL: MIC (μg/mL) P. vulgaris [4, 15] | MIC (μg/mL) M. catarrhalis [8, 18]

PRT1496 (EISKCPQPCRNGGKCIGKSKCKCSKGYQGDLCS; listed as Homo sapiens)
25 µg/mL: MIC (μg/mL) E. coli BL21 [6, 26] | MIC (μg/mL) S. marcescens [9, 29]
12.5 µg/mL: MIC (μg/mL) K. pneumonia [2, 23] | MIC (μg/mL) P. aeruginosa [3, 24] | MIC (μg/mL) M. catarrhalis [8, 28]
50 µg/mL: MIC (μg/mL) P. mirabilis [1, 22] | MIC [5] | MIC (μg/mL) A. hydrophila [7, 27] | MIC (μg/mL) C. diversus [10, 30]
100 µg/mL: MIC (μg/mL) P. vulgaris [4, 25] | MIC (μg/mL) E. cloacae [11, 31]

PRT417 (DVNECQRYPGRLCGHKCENTLGSYLCSCSVGFRLSVDGRSCE; listed as Homo sapiens)
50 µg/mL: MIC [6, 16]
25 µg/mL: MIC [3, 14] | MIC [5] | MIC [10, 20] | MIC [11, 21]
12.5 µg/mL: MIC [1, 12] | MIC [2, 13] | MIC [4, 15] | MIC [7, 17] | MIC [8, 18] | MIC [9, 19]

PRT969 (LLSPCTPNPCEHGGRCESAPGQLPVCSCPQGWQGPRCQ; listed as Homo sapiens)
12.5 µg/mL: MIC ([6]; E. coli BL21, 10 h cultivation at 37° C.) | MIC ([9]; S. marcescens, 10 h cultivation at 37° C.) | MIC ([10]; C. diversus, 10 h cultivation at 37° C.)
50 µg/mL: MIC ([1]; P. mirabilis, 10 h cultivation at 37° C.) | MIC ([2]; K. pneumonia, 10 h cultivation at 37° C.) | MIC [5]
25 µg/mL: MIC ([3]; P. aeruginosa, 10 h cultivation at 37° C.) | MIC ([4]; P. vulgaris, 10 h cultivation at 37° C.) | MIC ([7]; A. hydrophila, 10 h cultivation at 37° C.) | MIC ([8]; M. catarrhalis, 10 h cultivation at 37° C.) | MIC ([11]; E. cloacae, 10 h cultivation at 37° C.)

PRT474 (QADPCQPNPCEHGGDCLVHGSTFTCSCLAPFSGNKCQ; listed as Homo sapiens)
25 µg/mL: MIC against K. pneumonia [2, 32] | MIC against P. aeruginosa [3, 32] | MIC against E. coli BL21 [6, 32] | MIC against E. cloacae [11, 32]
12.5 µg/mL: MIC against P. mirabilis [1, 32] | MIC [5] | MIC against S. marcescens [9, 32] | MIC against C. diversus [10, 32]
50 µg/mL: MIC against P. vulgaris [4, 32] | MIC against A. hydrophila [7, 32] | MIC against M. catarrhalis [8, 32]

PRT507 (CICYGHARACPLDPATNKSRCECEHNTCGDSCDQCCPGFHQKPWRAGTFLTKTECEA; listed as Homo sapiens)
50 µg/mL: MIC against K. pneumonia [2, 32] | MIC against P. vulgaris [4, 32] | MIC against E. coli BL21 [6, 32] | MIC against A. hydrophila [7, 32] | MIC against M. catarrhalis [8, 32]
25 µg/mL: MIC against S. marcescens [9, 32]
12.5 µg/mL: MIC against P. mirabilis [1, 32] | MIC against P. aeruginosa [3, 32] | MIC [5] | MIC against C. diversus [10, 32] | MIC against E. cloacae [11, 32]

PRT740 (GLNDCMHNNGQCGQLCLAIPGGHRCGCASHYTLDPSSRNCS; listed as Homo sapiens)
12.5 µg/mL: MIC K. pneumonia [2, 32] | MIC P. vulgaris [4, 32] | MIC [5] | MIC E. coli BL21 [6, 32] | MIC A. hydrophila [7, 32] | MIC C. diversus [10, 32]
25 µg/mL: MIC P. mirabilis [1, 32] | MIC S. marcescens [9, 32]
50 µg/mL: MIC P. aeruginosa [3, 32] | MIC M. catarrhalis [8, 32] | MIC E. cloacae [11, 32]
